Converted amounts (≈) assume the structure as drawn.
Experiments:
[1] = Solubility of the compound in potassium phosphate buffer at pH 7.4 by UV-vis spectroscopy
[2] = Metabolic stability in mouse liver microsomes assessed as half life measured up to 60 mins by LC/MS analysis; type: ADME, Microsome
Plasmodium yoelii [3] = assay: Antimalarial activity against erythrocytic Plasmodium yoelii MRA-428 infected in CF1 mouse assessed as cured mouse at 50 mg/kg, po once daily for 4 days measured on day 28 day; type: functional, organism-based; conditions: time 4.0 day
Plasmodium falciparum [4] = assay: Antiplasmodial activity against asexual blood-stage Plasmodium falciparum Tm90-C2B using 2% haematocrit and 0.2% parasitemia assessed as reduction in fluorescence measured after 72 hrs by Malaria SYBR Green I-based Fluorescence (MSF) assay; type: functional, organism-based
Plasmodium yoelii [5] = assay: Antimalarial activity against erythrocytic Plasmodium yoelii MRA-428 infected in CF1 mouse assessed as reduction in parasitemia at 25 mg/kg, po once daily for 4 days measured on day 5; type: functional; design: scale not given: the % may be the effect or the level left; conditions: time 4 day
HepG2 = assay: (§1) Cytotoxicity against human HepG2 cells assessed as cell viability measured after 48 hrs by MTT assay; type: toxicity, cell-based; conditions: hepg2
in vitro [6] = conditions: mouse, liver microsomes
Plasmodium yoelii [7] = assay: Antimalarial activity against erythrocytic Plasmodium yoelii MRA-428 infected in CF1 mouse assessed as reduction in parasitemia at 50 mg/kg, po once daily for 4 days measured on day 5; type: functional; design: scale not given: the % may be the effect or the level left; conditions: time 4 day
in vitro [8] = conditions: human, liver microsomes
Plasmodium yoelii [9] = assay: Antimalarial activity against erythrocytic Plasmodium yoelii MRA-428 infected in CF1 mouse assessed as cured mouse at 25 mg/kg, po once daily for 4 days measured on day 28 day; type: functional, organism-based; conditions: time 4.0 day
[10] = Metabolic stability in human liver microsomes assessed as half life measured up to 60 mins by LC/MS analysis; type: ADME, Microsome
MDR1 (human) [11] = assay: (§2) Apparent permeability across apical to basolateral side in MDCK transfected with human MDR1 cells incubated for 1 hr by LC-MS analysis; conditions: dog, MDCK-MDR1
Plasmodium falciparum [12] = assay: microbe, parasite or virus in culture; conditions: D6, 72 h
Description: Antiplasmodial activity against asexual blood-stage Plasmodium falciparum D6 using 2% haematocrit and 0.2% parasitemia assessed as reduction in fluorescence measured after 72 hrs by Malaria SYBR Green I-based Fluorescence (MSF) assay

[13] = (§3) Apparent permeability across basolateral to apical side in MDCK transfected with human MDR1 cells incubated for 1 hr by LC-MS analysis; conditions: dog, mdck, 1 h
Plasmodium yoelii [14] = assay: Antimalarial activity against erythrocytic Plasmodium yoelii MRA-428 infected in CF1 mouse assessed as reduction in parasitemia at 10 mg/kg, po once daily for 4 days measured on day 5; type: functional; design: scale not given: the % may be the effect or the level left; conditions: time 4 day
Plasmodium falciparum [15] = assay: microbe, parasite or virus in culture; conditions: Dd2, 72 h
Description: Antiplasmodial activity against asexual blood-stage Plasmodium falciparum Dd2 using 2% haematocrit and 0.2% parasitemia assessed as reduction in fluorescence measured after 72 hrs by Malaria SYBR Green I-based Fluorescence (MSF) assay

[16] = as §2; conditions: dog, mdck, 1 h
in vitro [17] = conditions: human
Description: Selectivity index, ratio of IC50 for cytotoxicity against human HepG2 cells to IC50 for antiplasmodial activity against asexual blood-stage Plasmodium falciparum D6

[18] = as §1; type: toxicity, cell-based; conditions: human, HepG2 cells
MDR1 (human) [19] = assay: Efflux ratio, ratio of apparent permeability across apical to basolateral side over basolateral to apical side in MDCK transfected with human MDR1 cells incubated for 1 hr by LC-MS analysis; conditions: dog
MDR1 (human) [20] = assay: as §3; conditions: dog, MDCK-MDR1
Plasmodium yoelii [21] = assay: Antimalarial activity against erythrocytic Plasmodium yoelii MRA-428 infected in CF1 mouse assessed as cured mouse at 80 mg/kg, po once daily for 4 days measured on day 28 day; type: functional, organism-based; conditions: time 4.0 day
Plasmodium yoelii [22] = assay: Antimalarial activity against erythrocytic Plasmodium yoelii MRA-428 infected in CF1 mouse assessed as reduction in parasitemia at 80 mg/kg, po once daily for 4 days measured on day 5; type: functional; design: scale not given: the % may be the effect or the level left; conditions: time 4 day

efflux ratio at 1 h (MDR1 (human) [19])	Structure (SMILES)	solubility ([1]; buffer) [µM]	half-life [2] [h]	Activity (Plasmodium yoelii [3])	IC50 (Plasmodium falciparum [4]) [µM]	Activity (Plasmodium yoelii [5]) [%]	IC50 (HepG2) [µM]	microsomal CLint at 1 h (in vitro [6]) [µL/min/mg]	Activity (Plasmodium yoelii [7]) [%]	microsomal CLint at 1 h (in vitro [8]) [µL/min/mg]	Activity (Plasmodium yoelii [9])	half-life [10] [h]	Papp A→B at 1 h (MDR1 (human) [11]) [×10⁻⁶ cm/s]	IC50 (Plasmodium falciparum [12]) [µM]	Papp [13]	Activity (Plasmodium yoelii [14]) [%]	IC50 (Plasmodium falciparum [15]) [µM]	Papp [16]	further results
	CCC1=C(CC)/C(=C/NC2CCCCCC2)N=C1c1ccc(C)[nH]1	35.9 (≈ 11.7 µg/mL)	> 1	Not active; None Of The Mouse Cured Out Of Four Tested	0.00902	100	4.21	16.6	100	18.3	Not active; None Of The Mouse Cured Out Of Four Tested	> 1	0.007	0.00447	0.45 ×10⁻⁶ cm/s	92.2	0.00383		
	COc1ccc(Cc2ccc(C3=N/C(=C\NC4CCCCCC4)C4=C3OCCO4)[nH]2)cc1	5.52 (≈ 2.39 µg/mL)	> 1		0.0151		1.48	20.6		16.1		> 1		0.0119	0.57 ×10⁻⁶ cm/s	1.5	0.0213		
	COc1ccc(Cc2ccc(C3=N/C(=C\NC4CCCCCC4)C4=C3CCCC4)[nH]2)cc1	11.4 (≈ 4.9 µg/mL)	> 1		0.0028	0	1.34	2.07		3.18		> 1		0.0061		0	0.00556	0.7 ×10⁻⁶ cm/s	
	CCC1=C(CC)/C(=C/NC2CCCCC2)N=C1c1ccc(Cc2ccc(OC)cc2)[nH]1	14.4 (≈ 6.01 µg/mL)	> 1		0.0116	0	7.81	1.94		3.37		> 1		0.00926	0.43 ×10⁻⁶ cm/s	0	0.00725	0.15 ×10⁻⁶ cm/s	
0.14	CCC1=C(CC)/C(=C/NC23CC4CC(CC(C4)C2)C3)N=C1c1cc2ccccc2[nH]1		0.818		0.41			28.3		4.02		> 1		0.0702			0.0593	0.58 ×10⁻⁶ cm/s	selectivity ratio (in vitro [17]): 99.8; solubility ([1]; potassium phosphate buffer): 11.5 µM (≈ 4.6 µg/mL); IC50 at 48 h [18]: 7.01 µM
	[2H]C([2H])(C)c1ccc(C2=N/C(=C\NC3CCCCCC3)C(C)=C2C)[nH]1	42 (≈ 13.2 µg/mL)	> 1		0.0101	96.5	6.55	16		14		> 1		0.00508	0.007 10^-6 cm/s	78.5	0.00591	0.29 10^-6 cm/s	
0.23	CCC1=C(CC)/C(=C/NC23C[C@H]4C[C@@H](C2)C[C@@H](C3)C4)N=C1c1ccc(Br)[nH]1	25.8 (≈ 11.1 µg/mL)	> 1		0.0156	67.1	4.02	7.36		14.4		> 1	0.002	0.0181	0.39 ×10⁻⁶ cm/s	33.1	0.0246		selectivity ratio (in vitro [17]): 222
	CCc1ccc(C2=N/C(=C\NC3CCCCCC3)C3=C2CCCC3)[nH]1	15.4 (≈ 5.2 µg/mL)	> 1	Not active; None Of The Mouse Cured Out Of Four Tested	0.00174	100	1.06	10.3	100	8.31	Not active; None Of The Mouse Cured Out Of Four Tested	> 1		0.0048		22.7	0.00136	0.24 ×10⁻⁶ cm/s	Papp B→A at 1 h (MDR1 (human) [20]): 0.003 ×10⁻⁶ cm/s
	CCC1=C(CC)/C(=C/NC2CCCCCC2)N=C1c1ccc(Cc2ccc(OC)cc2)[nH]1	20.5 (≈ 8.85 µg/mL)	> 1		0.0163	0	4.34	2.27		2.23		> 1		0.00993		0	0.00842	0.18 ×10⁻⁶ cm/s	
0.37	CCC1=C(CC)/C(=C/NC23C[C@H]4C[C@@H](C2)C[C@@H](C3)C4)N=C1c1cc2cc(Cl)ccc2[nH]1	18.3 (≈ 7.94 µg/mL)	> 1		0.175		5.02	4.72		8.8		> 1	0.002	0.106	0.85 ×10⁻⁶ cm/s		0.133		selectivity ratio (in vitro [17]): 47
8.7	CCC1=C(CC)/C(=C/N[C@H]2CC[C@H](C)CC2)N=C1c1ccc[nH]1	205 (≈ 63.9 µg/mL)		Active; Two Mouse Cured Out Of Four	0.0971	100		37	100	59.5	Active; Two Mouse Cured Out Of Four		0.015	0.0679		88.8	0.0893		selectivity ratio (in vitro [17]): 235; Activity (Plasmodium yoelii [21]): Not active; None Of The Mouse Cured Out Of Four Tested; Activity (Plasmodium yoelii [22]): 100%; Papp B→A at 1 h (MDR1 (human) [20]): 0.13 ×10⁻⁶ cm/s
	CCC1=C(C)/C(=C/NC2CCCCC2)N=C1c1ccc(CC)[nH]1	23 (≈ 7.16 µg/mL)	> 1	Not active; None Of The Mouse Cured Out Of Four Tested	0.0133	100	6.01	13.1	100	40.4	Not active; None Of The Mouse Cured Out Of Four Tested	0.572	0.46	0.0338		45.7	0.0149		Activity (Plasmodium yoelii [21]): Active; Four Mouse Cured Out Of Four; Activity (Plasmodium yoelii [22]): 100%; Papp B→A at 1 h (MDR1 (human) [20]): 0.23 ×10⁻⁶ cm/s
	CCC1=C(C)/C(=C/NC2CCCCCC2)N=C1c1ccc(CC)[nH]1	12.5 (≈ 4.07 µg/mL)	> 1	Not active; None Of The Mouse Cured Out Of Four Tested	0.0075	100	4.23	22	100	35.1	Not active; None Of The Mouse Cured Out Of Four Tested	0.66	0.036	0.0084		43.8	0.0108		Activity (Plasmodium yoelii [21]): Active; Four Mouse Cured Out Of Four; Activity (Plasmodium yoelii [22]): 100%; Papp B→A at 1 h (MDR1 (human) [20]): 0.037 ×10⁻⁶ cm/s
	CCC1=C(CC)/C(=C/NC2CCCCCCC2)N=C1c1ccc(CC)[nH]1	< 3.125	> 1	Not active; None Of The Mouse Cured Out Of Four Tested	0.0078	100	2.72	14.6	100	7	Not active; None Of The Mouse Cured Out Of Four Tested	> 1		0.0159	0.28 ×10⁻⁶ cm/s	63.1	0.00721		

Structure (SMILES)	efflux ratio at 1 h (MDR1 (human) [19])	solubility ([1]; buffer) [µM]	half-life [2] [h]	Activity (Plasmodium yoelii [3])	IC50 (Plasmodium falciparum [4]) [µM]	Activity (Plasmodium yoelii [5]) [%]	IC50 (HepG2) [µM]	microsomal CLint at 1 h (in vitro [6]) [µL/min/mg]	Activity (Plasmodium yoelii [7]) [%]	microsomal CLint at 1 h (in vitro [8]) [µL/min/mg]	Activity (Plasmodium yoelii [9])	half-life [10] [h]	Papp A→B at 1 h (MDR1 (human) [11]) [×10⁻⁶ cm/s]	IC50 (Plasmodium falciparum [12]) [µM]	Papp [13]	Activity (Plasmodium yoelii [14]) [%]	IC50 (Plasmodium falciparum [15]) [µM]	Papp [16]	further results
CCC1=C(CC)/C(=C/NC2CCCCC2)N=C1c1ccc(Br)[nH]1	0.038	4.46 (≈ 1.68 µg/mL)	> 1		0.172			16				> 1	0.004		0.15 ×10⁻⁶ cm/s		0.336		

— ChEMBL document CHEMBL6178021, “Optimization of Tambjamines Active against Multiple Stages of Malaria Parasites” (J Med Chem, 2025)
